Values of other authors as cited in US20120107430A1, “PRE-PROCEDURE MEAL REGIMEN” (priority 2009, published 2012).

Columns and labels:
colon [1] = conditions: N=50 per arm; senna two doses 158 mg each, 8 hours apart; sodium phosphate 48 grams
colon [2] = conditions: either diet (light breakfast then clear liquids, or normal breakfast, low residue lunch, then clear liquids); 200 patients

For O=P(O)(O)O [sodium phosphate], the “patients reporting good tolerance” value (colon [1]) is given as 28 patients, the “patients reporting poor tolerance” value (colon [1]) is given as 12 patients and the “good to excellent preparation” value (colon [2]) is given as 93-95%.
